Test results as given in patent US20250000818A1, “NEW SYNERGISTIC COMBINATIONS BASED ON FENM AND AN ACETYLCHOLINESTERASE INHIBITOR” (REST Therapeutics, priority 2021, published 2025).

What was measured:
[1] = system: mice intoxicated with Aβ25-35 oligomers; test: Passive avoidance test (PAT), long-term contextual memory, Aβ25-35 oligomer ICV intoxication model; format: in vivo, male Swiss OF-1 mice
Description: (§1) In vivo experiments were conducted on male Swiss OF-1 mice (January, St Berthevin, France) aged 7 to 9 weeks with a mass of 32±2 g. The animals are housed in groups of 8 to 10 individuals in plastic cages with free access to food and drink, in a controlled environment (12:00 day/night cycle, the light is switched on at 7:00 a.m. and the behavioral experiments take place between 9:00 a.m. and 5:00 p.m.), under controlled atmosphere and sound environment.
FENM was obtained from M2i Life Sciences (Saint-Cloud, France). The stock solutions of the compounds were obtained by dissolution in NaCl buffer (0.9%, vehicle) at a concentration of 2 mg/mL which corresponds to a dose of 5 mg/Kg. These stock solutions are stored at 4° C. for 2 weeks maximum.
(§2) The vehicle solution or the control peptide are subjected to the same treatment before administration.
The compounds are IP administered in a volume of 100 μL per 20 g of body mass. […] The doses of compounds mentioned in the experimental part correspond to the doses of salts of the used compounds and not to the mass equivalent of the compound itself. For each compound, the administered doses are 0.01, 0.03, 0.1, 0.3 and 1 mg/kg.
(§3) The ability of the compounds and their combination to decrease the cognitive symptoms of neurodegeneration induced by the Aβ25-35 oligomers is tested. For this purpose, the administration of the test compounds takes place on the same day as the injection of the Aβ25-35 oligomers and continues on a daily basis until day 7 after the injection of the Aβ25-35 oligomers; the mice are then subjected to YMT tests, or PAT on day 8 after the injection of the Aβ25-35 oligomers.
This test measures the long-term non-space (contextual) memory. The device used for this test is a box with two compartments (15×20×15 cm high), one illuminated with white PVC walls and the other in the dark with black PVC walls and a mesh floor. A guillotine door separates the compartments. A 60 W lamp is positioned 40 cm above the box and illuminates the white compartment. Electrical shocks (0.3 mA for 3 s) may be applied to the grid floor via a generator (Lafayette Instruments, Lafayette, USA). The test consists of a learning session and a test session. The guillotine door is closed during the training session. Each mouse is placed in the white compartment. After 5 seconds, the door is raised. When the mouse enters the dark compartment so that its four legs are in contact with the mesh, the door closes and electrical discharges are applied for 3 seconds. The time taken by the mouse to enter the dark compartment (STL-Tg) and the level of shock sensitivity (0=no sign; 1=surges; surge and vocalizes) are recorded. The test session is performed 24 hours after the learning session. Each mouse is placed back in the illuminated white compartment. After 5 seconds, the door is raised, the latency time (STL-R), i.e. the time it takes the mouse to go into the dark compartment, is measured. The maximum time is 300 seconds.

[2] = system: mice intoxicated with Aβ25-35 oligomers; test: Y-labyrinth spontaneous alternation test (YMT), short-term spatial working memory, Aβ25-35 oligomer ICV intoxication model; format: in vivo, male Swiss OF-1 mice
Description: as §1
The stock solutions of the compounds were obtained by dissolution in NaCl buffer (0.9%, vehicle) at a concentration of 2 mg/mL which corresponds to a dose of 5 mg/Kg. These stock solutions are stored at 4° C. for 2 weeks maximum.
as §2
The compounds are IP administered in a volume of 100 μL per 20 g of body mass. […] The doses of compounds mentioned in the experimental part correspond to the doses of salts of the used compounds and not to the mass equivalent of the compound itself. For each compound, the administered doses are 0.01, 0.03, 0.1, 0.3 and 1 mg/kg. In the case of the combination, the co-administered doses of donepezil and FENM were 0.03 and 0.01 mg/kg, respectively.
as §3
The spontaneous alternation test is used to study the (very short-term) spatial working memory in rodents. The labyrinth is made of opaque gray polyvinyl chloride (PVC). Each arm is 40 cm long, 13 cm high and 3 cm wide at its base and 10 cm at its top. The arms converge towards one another, with an equal angle between the different arms. In brief, each mouse is placed at the end of an arm and left free to move for an 8-minute session. The mouse entries in each of the arms, including the arm at which it was dropped, are recorded. An alternation is defined as the successive entry of the animal into three different arms.
The animal data showing extreme behaviors (percentage of alternation <20% or >90%) are not taken into account in the calculations. The attrition rate is usually 5%. Under normal conditions, a mouse will spontaneously alternate the explorations of each arm. A mouse with impaired memory and/or orientation capabilities will have its alternation percentage decreased.
Data were analyzed using unidirectional variance analyses (ANOVA, F-value), followed by a Dunnett test or non-parametric Kruskal-Wallis ANOVA (H-value) followed by a Dunn comparison test. The statistical significance levels are p<0.05, p<0.01 and p<0.001.

SMILES: NC12CC3CC(C1)CC(CCF)(C3)C2.OBr [FENM, 3 (2-Fluoroethyl)tricyclo[3.3.1.13,7]decan-1-amine bromohydrate]
- PP (%) percentage protection ([1]; 0.01 mg/kg IP): 1.4 ± 18.3%
- PP (%) percentage protection ([1]; 0.03 mg/kg IP): −12.2 ± 16.8 %
- PP (%) percentage protection ([1]; 0.1 mg/kg IP): 27.8 ± 24.8%
- PP (%) percentage protection ([1]; 0.3 mg/kg IP): 52.9 ± 14.2 %
- effect on passive avoidance performance (latency) of intoxicated mice ([1]; 0.3 mg/kg or 1 mg/kg IP): performances that are not significantly different from the control, non-intoxicated, untreated mice
- effect on passive avoidance performance (latency) of intoxicated mice ([1]; doses lower than 0.3 mg/kg): does not protect mice from mnesic disorders
- effect on percentage of alternation of intoxicated mice ([2]; 0.01 mg/kg): at the limit of statistical significance
- PP (%) percentage protection ([2]; 0.01 mg/kg IP daily to day 7, 100% = non-intoxicated vehicle, 0% = Aβ25-35/vehicle): 38.5 ± 31.9%
- effect on percentage of alternation of intoxicated mice ([2]; 0.03 mg/kg): significantly improves the percentage of alternation
- PP (%) percentage protection ([2]; 0.03 mg/kg IP): 58.4 ± 20.8%
- PP (%) percentage protection ([2]; 0.1 mg/kg IP): 71.2 ± 33.3 %
